Data reported in patent US11628179B2, “Compounds for treating and preventing extracellular histone mediated pathologies” (priority 2017, dated 2023).
Several values for one entry are separate records, joined by “and”; a condition that tells them apart may be missing. Equal values may be shown once. Where a name gives a salt, the structure may show the parent alone.

Legend:
[1] = Non-specific binding to ultrafiltration device (phosphate buffer); type: in vitro ADME; details: for Concentration of mCBS, 200 ng/mL Post-filter / Concentration of mCBS, 200 ng/mL Pre-filter / Concentration of mCBS, 2000 ng/mL Post-filter / Concentration of mCBS, 2000 ng/mL Pre-filter: Phosphate Buffer pH 7.4, replicates and Mean
Description: Protein binding was assessed by an ultrafiltration method using Centrifree® Ultrafiltration Devices with a 30000 dalton molecular weight cut-off point. Briefly, known concentrations of mCBS (as free base) were added to human, rat and dog plasma samples and incubated for 20 min at 37° C. The samples were then subject to ultrafiltration to separate protein bound and unbound drug.
mCBS stock solutions (10 μL) were spiked into solutions of each test matrix (490 μL) as listed below in Table 9 to have a final concentration of 200 ng/mL & 2000 ng/m L.
Spiked samples were then incubated at 37° C. for 20 minutes in a water bath. Aliquots of the samples from each test group (500 μL) were transferred to the ultrafiltration devices (n=3) and centrifuged for 20 minutes at 1000 g. After centrifugation, aliquots of the ultrafiltrates (50 μL) were transferred to separate test tubes for extraction, alongside duplicate aliquots of the samples prior to ultrafiltration from each test group.
For quantification of samples before ultrafiltration, samples were analysed against a freshly prepared standard curve in plasma.

[2] = mCBS vs CBS levels in phosphate buffered pH 7.5 clinical trial formulation stored at 2-8° C. (CAD); type: physicochemical; details: 2-8° C.
[3] = tested on: human microvascular endothelial cells (HMECs)
Sprague Dawley rats = tested on: Sprague Dawley rats
Description: This study examined toxicity from repeat IV administration of mCBS in rats over 7 days with doses up to 1000 mg/kg.
The acute tolerability and toxicity of β-O-methyl cellobioside sulfate was assessed in Sprague Dawley rats following daily intravenous dose administration for a period of seven days. A total of four groups of n=3 adult female rats were treated with 0, 100, 300 and 1000 mg/kg doses of mCBS in the form of the sodium salt (mCBS.Na) in this repeated dose study. […] The rats were then observed for 7 days prior to termination with gross necropsy and terminal haematology and biochemistry analyses. An additional group of n=3 male rats were also treated at the highest dose of 1000 mg/kg according to the same study design.

[4] = mCBS vs CBS levels in bulk powder stored at −20° C. (CAD); type: physicochemical
Description: Table 2b compares mCBS vs CBS levels in a representative batch of bulk powder when stored at −20° C. over 24 months. T is for time in months. T=0 or T0 represents analytical results carried out on completion of manufacture. Subsequent analysis indicated are relative to the initial analysis of the drug powder or formulation (e.g. […] Analytical method employing CAD (Charged Aerosol Detector) was used to measure the level of mCBS purity and its impurities and expressed as CAD %.

HMEC-1 = assay: Histone-induced calcium flux in endothelial cells; type: cell-based, human; details: mCBS 100 μg ml−1, histones 100 μg ml−1
Description: Calcium flux studies in endothelial cells. HMEC-1 (2×10^7 ml^−1) in RPMI-1640 medium were incubated with Indo-1 AM (5 μM)(ThermoFisher) at 37° C. for 60 min. […] The cell suspension was kept on ice and used within 3 h. Intracellular Ca^2+ flux was monitored using flow cytometry. The cells were pre-equilibrated and maintained at 37° C. during analysis using an external sheath connected to a heated water bath. After the exclusion of cellular debris and clumped cells (on the basis of FSC/SSC light scattering) the basal Ca^2+ level was monitored for 2 min before histone addition in the presence/absence of novel compounds. Ca^2+ levels were measured at 1, 4 and 10 min post-histone addition with a constant flow rate (˜300 events/sec). Ca^2+ flux was determined as an increase in the ratio of geometric mean fluorescence intensity (GMFI) of Ca^2+-bound over Ca^2+-unbound Indo-1.

[5] = Pharmacokinetics, 5 hour intravenous infusion; type: in vivo, rat
Description: The pharmacokinetics (PK) of mCBS were studied following intravenous administration as an infusion over a 5 hours period to male Sprague Dawley rats. In this study the pharmacokinetics of the mCBS compound were investigated following intravenous infusion. The compound was formulated using Hartman's solution and administered to a group of n=3 rats at the rate of 25.3 mg/kg/h (total dose: 126.5 mg/kg; Group 1) and to a second group of n=3 rats at the rate of 50.6 mg/kg/h (total dose: 253 mg/kg; Group 2).
A total of six blood PK samples were collected from each rat at time points ranging from pre-dose to 5 hours after the start of the infusion. The resulting blood samples were processed to plasma, and subsequently analysed for the concentration of mCBS using an LC-MS/MS based method. Phoenix 64 WinNonlin® software was used to estimate area under the concentration versus time curve (AUC) values over the 0 to 5 h infusion interval. Values for concentration at steady state (Css) and clearance (Cl) were also estimated.

[6] = mCBS 100 μg/mL added prior to histones 400 μg/mL, 60 min

## CO[C@@H]1O[C@H](COS(=O)(=O)O)[C@@H](O[C@@H]2O[C@H](COS(=O)(=O)O)[C@@H](OS(=O)(=O)O)[C@H](OS(=O)(=O)O)[C@H]2OS(=O)(=O)O)[C@H](OS(=O)(=O)O)[C@H]1OS(=O)(=O)O [mCBS, β-O-methyl cellobioside sulfate]
[1]; 200 ng/mL
  Non-specific binding (NSB %): 0.50%
[1]; 2000 ng/mL
  Non-specific binding (NSB %): −1.97%
[1]
  Concentration of mCBS, 200 ng/mL Post-filter: 194 ng/mL and 202 ng/mL
  Concentration of mCBS, 200 ng/mL Pre-filter: 209 ng/mL and 195 ng/mL
  Concentration of mCBS, 2000 ng/mL Post-filter: 2190 ng/mL and 2160 ng/mL
  Concentration of mCBS, 2000 ng/mL Pre-filter: 1970 ng/mL
[1]; mean
  Concentration of mCBS, 200 ng/mL Post-filter: 201 ng/mL
  Concentration of mCBS, 200 ng/mL Pre-filter: 202 ng/mL
  Concentration of mCBS, 2000 ng/mL Post-filter: 2070 ng/mL
  Concentration of mCBS, 2000 ng/mL Pre-filter: 2030 ng/mL
[2]; T0 (months)
  level in phosphate buffered pH 7.5 formulation: 98.33 CAD %
[2]; T2
  level in phosphate buffered pH 7.5 formulation: 98.39 CAD %
[2]; T3
  level in phosphate buffered pH 7.5 formulation: 98.37 CAD %
[2]; T7
  level in phosphate buffered pH 7.5 formulation: 98.54 CAD %
[2]; T10
  level in phosphate buffered pH 7.5 formulation: 98.47 CAD %
[2]; T13
  level in phosphate buffered pH 7.5 formulation: 98.44 CAD %
[2]; T19
  level in phosphate buffered pH 7.5 formulation: 98.78 CAD %
[2]; over 18 months
  stability when stored in aqueous buffered solution: high stability
[3]; histones 400 μg/mL, increasing concentrations of mCBS
  effect of increasing concentration on viable/dead cells: an increase in viable cells (Calcein-AM uptake) and a reduction in dead cells (PI uptake)
[3]; histones 400 μg/ml 60 min, then mCBS 100 μg/ml for 10 min
  HMECs reverted from PI uptake to PI exclusion and calcein-AM uptake: approximately 30%
[3]; mCBS 25 μg/mL + histones 400 μg/mL
  protection from histone-mediated injury: reduced level of protection
[3]; [6]
  dead cells (PI uptake): 20%
  viable cells (calcein-AM): 74%
Sprague Dawley rats; daily IV bolus 100, 300 and 1000 mg/kg for 7 days
  tolerability: well tolerated at all dose levels
Sprague Dawley rats; daily IV bolus for 7 days, corrected for purity and sodium content
  MTD, as free base: 815 mg/kg
Sprague Dawley rats; daily IV bolus for 7 days, dose as sodium salt form
  MTD: 1000 mg/kg
Sprague Dawley rats; daily IV bolus up to 1000 mg/kg for 7 days
  Hematology and biochemistry parameters: unremarkable
[4]; 24 months
  stability when stored in powder: high stability
[4]; T0 (months)
  level in bulk powder: 98.56 CAD %
[4]; T1
  level in bulk powder: 98.45 CAD %
[4]; T3
  level in bulk powder: 98.28 CAD %
[4]; T6
  level in bulk powder: 98.22 CAD %
[4]; T9
  level in bulk powder: 97.77 CAD %
[4]; T12
  level in bulk powder: 98.00 CAD %
[4]; T18
  level in bulk powder: 97.94 CAD %
[4]; T24
  level in bulk powder: 98.26 CAD %
HMEC-1
  histone-induced Ca2+ flux: substantially inhibited the response
[5]; Group 1, 25.3 mg/kg/h
  Cl, mean (±SEM): 0.601 (±0.081) l/h/kg
  Css, mean (±SEM): 58,400 (±6,920) ng/ml
[5]; Group 1, IV infusion 25.3 mg/kg/h for 5 h
  AUC 0-5 h infusion interval, mean (±SEM): 260,000 (±30,200) ng·h/mL
[5]; Group 2, 50.6 mg/kg/h
  Cl, mean (±SEM): 0.571 (±0.025)
  Css, mean (±SEM): 120,000 (±5,560) ng/ml
[5]; Group 2, IV infusion 50.6 mg/kg/h for 5 h
  AUC 0-5 h infusion interval, mean (±SEM): 532,000 (±25,500) ng·h/mL
[5]; IV infusion
  time of infusion to reach steady state plasma level (Css): 2 h
[5]; IV infusion 5 h
  Css and AUC at 50 mg/kg/hr compared to 25 mg/kg/hr: 2 fold
[5]; rats treated with the higher dose
  APTT (coagulation test): higher APTT score compared to the reference range
